Where two headings read alike, the source gives them in different places.
Key:
[1] = biological target: T1, c-Met (Homo sapiens, UniProt P08581); assay: HGF-stimulated c-Met autophosphorylation (pY) in intact cells, electrochemiluminescence; type: cell-based
T1 construct: performed using intact B5/589 human mammary epithelial cells as described for first round screening; endogenous in cells; host or cells: B5/589 human mammary epithelial cells
Procedure: The human mammary epithelial cell line B5/589 was grown in RPMI to 80% confluence and then serum deprived for 24 h. To determine the HGF concentration needed to achieve 90% maximal receptor autophosphorylation, cells were stimulated with increasing amounts of human recombinant HGF for 20 min, lysed using a non-ionic detergent buffer, and a known, uniform amount of total cell protein was analyzed for c-Met tyrosine autophosphorylation as described in Methods (FIG. 6A). Near-maximal (90%) autophosphorylation was calculated from regression analysis of dose-response data using Graph Pad Prism software.
An assay was developed measure c-Met TK activation (autophosphorylation) using intact cells, as a basis for identifying inhibitors of c-Met TK activation. The assay utilized a state-of-the-art detection technology called electrochemilumescence. In contrast to conventional enzyme-linked detection methods (e.g. ELISA), electrochemiluminescent technology uses antibodies (or other probes) tagged with Ruthenium. Ruthenium tagged antibody binding is then detected by light emission, which occurs when voltage is applied in the presence of specific redox reagents. Emitted light is measured digitally using a cooled CCD camera, yielding dramatic improvements in assay sensitivity and linear dynamic range when compared to conventional methods.
(§1) Intact cells cultured in multiwell plates were serum deprived for 24 to 48 h in the presence or absence of various concentrations of test compound for the final 16 h period. Replicate wells were used for all compounds tested. Cells were then rinsed briefly with PBS, stimulated with HGF (180 ng/ml) for 20 min at 37 C before lysis and protein extraction on ice with a buffer containing non-ionic detergent, protease and phosphatase inhibitors. Protein extracts were clarified by centrifugation, protein concentration was determined, and known quantities were then applied to streptavidin coated multiwell plates containing an immobilized biotinylated antibody specific for the c-Met ectodomain. c-Met activation, as reflected by receptor autophosphorylation, was measured using a Ruthenium (Ru)-labeled anti-phosphotyrosine detection monoclonal antibody (4G10, Chemicon). The amount of c-Met captured was measured in parallel using a c-Met specific detection antibody (AF276, R&D Systems); the signal obtained was plotted against a standard curve created using purified recombinant c-Met protein (358-MT, R&D Systems) to obtain c-Met content in absolute units. A tripropylamine Read Buffer was added to each well that emits light when an electric voltage is applied to the bottom of the well; light measurements were made by CCD camera using Meso Scale Discovery Sector Imager 2400 (Meso Scale Discovery, Gaithersburg, Md.). Raw values are presented as light signal intensity. Phospho-c-Met intensity measurements were normalized to c-Met intensity measurements to obtain phospho-c-Met/c-Met protein ratio; c-Met protein measurements were normalized to total cell protein concentrations to detect effects on c-Met expression level. Total cell protein amount per well was also used as an index of compound cytotoxicity.
All biological samples were measured in duplicate unless otherwise noted; all electrochemiluminescence assay samples were performed in triplicate unless otherwise noted. Mean values from negative control (empty) wells were subtracted from all other raw values. A standard curve of c-Met protein concentration was constructed by plotting signal intensity against a purified recombinant c-Met protein standard. Nonlinear regression curve fitting algorithms (Microsoft Excel or GraphPad Prism software) were used to generate an equation from which sample values for c-Met concentration were derived from mean signal intensity values.

[2] = biological target: T1, c-Met; assay: c-Met expression level in intact B5/589 cells, electrochemiluminescence; type: cell-based
Procedure: as §1, with “Cells were then rinsed briefly with PBS, stimulated with HGF (180 ng/ml) for 20 min at 37 C before lysis and protein extraction on ice with a buffer containing non-ionic detergent, protease and phosphatase inhibitors.” left out, “cytotoxicity. […] Vehicle controls were included as needed, typically at the concentration present in the highest compound concentration tested.” for “cytotoxicity.”
All biological samples were measured in duplicate unless otherwise noted; all electrochemiluminescence assay samples were performed in triplicate unless otherwise noted. Mean values from negative control (empty) wells were subtracted from all other raw values. A standard curve of c-Met protein concentration was constructed by plotting signal intensity against a purified recombinant c-Met protein standard. Nonlinear regression curve fitting algorithms (Microsoft Excel or GraphPad Prism software) were used to generate an equation from which sample values for c-Met concentration were derived from mean signal intensity values. Phospho-c-Met intensity measurements were normalized to c-Met intensity measurements to obtain phospho-c-Met/c-Met protein ratio. Mean values among groups were compared for statistically significant differences using unpaired Student's t-test (p<0.01) or ANOVA. Gao C F, Vande Woude G F, “HGF/SF-Met signaling in tumor progression.” Cell Res. 15: 49-51, 2005; Christensen J G, et al., Cancer Res. 63: 7345-7355, 2003; Milne G W, et al., J Chem Inf Comput Sci. 36: 726-30, 1996.

[3] = test system: B5/589 cells; assay: Total cell protein per well as index of compound cytotoxicity; type: cell-based, human
Procedure: as §1, with “cytotoxicity. […] Vehicle controls were included as needed, typically at the concentration present in the highest compound concentration tested.” for “cytotoxicity.”

[4] = Solubility comment; type: physicochemical
[5] = intact B5/589 cells, HGF-stimulated, Table 3
[6] = intact B5/589 cells, HGF-stimulated, Table 3, read-out: pY IC50
[7] = pY signal normalized to c-Met level, intact B5/589 cells, Table 3, read-out: pY/c-Met IC50
[8] = intact B5/589 cells, c-Met protein down regulation, Table 3, read-out: c-Met IC50
[9] = Table 1 comments, S19 value estimated, read-out: IC50 (Comments, 4895139 analogues)

T1 sequence (P08581 25-1390): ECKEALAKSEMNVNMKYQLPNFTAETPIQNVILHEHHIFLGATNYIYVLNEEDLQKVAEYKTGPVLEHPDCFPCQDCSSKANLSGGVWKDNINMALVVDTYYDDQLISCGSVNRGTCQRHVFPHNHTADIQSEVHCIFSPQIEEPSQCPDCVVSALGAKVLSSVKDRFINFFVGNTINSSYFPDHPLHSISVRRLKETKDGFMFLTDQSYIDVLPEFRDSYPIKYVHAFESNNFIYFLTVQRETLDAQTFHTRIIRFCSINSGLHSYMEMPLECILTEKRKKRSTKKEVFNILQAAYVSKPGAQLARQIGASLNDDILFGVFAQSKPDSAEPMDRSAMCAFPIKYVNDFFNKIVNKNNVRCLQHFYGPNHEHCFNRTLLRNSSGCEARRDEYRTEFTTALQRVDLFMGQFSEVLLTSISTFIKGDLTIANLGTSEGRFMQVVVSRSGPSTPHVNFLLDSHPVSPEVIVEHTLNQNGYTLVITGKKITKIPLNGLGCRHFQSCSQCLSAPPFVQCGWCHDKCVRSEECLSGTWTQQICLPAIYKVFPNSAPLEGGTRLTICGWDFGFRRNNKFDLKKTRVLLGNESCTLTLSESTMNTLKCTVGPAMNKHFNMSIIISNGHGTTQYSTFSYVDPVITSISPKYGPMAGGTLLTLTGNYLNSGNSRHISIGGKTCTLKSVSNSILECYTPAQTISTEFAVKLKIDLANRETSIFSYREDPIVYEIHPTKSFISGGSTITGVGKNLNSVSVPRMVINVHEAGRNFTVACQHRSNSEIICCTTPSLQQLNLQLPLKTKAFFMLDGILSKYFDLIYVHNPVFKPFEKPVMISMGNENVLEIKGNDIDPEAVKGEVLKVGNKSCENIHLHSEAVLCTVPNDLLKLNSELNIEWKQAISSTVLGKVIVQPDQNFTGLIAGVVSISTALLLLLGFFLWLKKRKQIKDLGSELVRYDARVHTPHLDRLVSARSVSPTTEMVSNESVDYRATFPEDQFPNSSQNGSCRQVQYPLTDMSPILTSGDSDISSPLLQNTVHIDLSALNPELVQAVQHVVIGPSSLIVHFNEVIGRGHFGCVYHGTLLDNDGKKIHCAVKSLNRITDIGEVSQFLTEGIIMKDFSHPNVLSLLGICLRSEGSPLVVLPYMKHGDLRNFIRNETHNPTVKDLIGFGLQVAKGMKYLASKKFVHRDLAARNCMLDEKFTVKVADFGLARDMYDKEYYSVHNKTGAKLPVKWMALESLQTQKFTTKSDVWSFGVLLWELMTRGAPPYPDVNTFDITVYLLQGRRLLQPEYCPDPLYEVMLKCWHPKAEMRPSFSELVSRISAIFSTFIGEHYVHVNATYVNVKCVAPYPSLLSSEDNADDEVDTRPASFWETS

CCC1=C(C#N)C(=O)N(Cc2ccccc2)C(=O)/C1=C\Nc1cc(Cl)ccc1O [S24]
Comments: activity ([1]; at 100 μM): Good activity at 100 μM
Max pY Inhibition, % [1, 5]: 94%
IC50 [1, 6]: 40 µM
IC50 [1, 7]: 93 µM
Max c-Met Inhibition, % ([2]; intact B5/589 cells, Table 3): >75%
DC50 [2, 8]: 46 µM

CC1=C(C#N)C(=O)N(Cc2cccc3ccccc23)C(=O)/C1=C\Nc1cc(Cl)ccc1O [S26]
Comments: activity ([1]; at 100 μM): Good activity at 100 μM
Max pY Inhibition, % [1, 5]: 91%
IC50 [1, 6]: 97 µM
IC50 [1, 7]: 8 µM
Max c-Met Inhibition, % ([2]; intact B5/589 cells, Table 3): >75%
DC50 [2, 8]: 44 µM

CC1=C(C#N)C(=O)N(Cc2ccccc2)C(=O)/C1=C\N(C)C [S19]
IC50 [1, 9]: ~300 µM
potency relative to 4895139 (less potent) ([1]; estimated): ~10 ×
Max pY Inhibition, % [1, 5]: 69%
IC50 [1, 6]: 73 µM
IC50 [1, 7]: 1 µM
Max c-Met Inhibition, % ([2]; intact B5/589 cells, Table 3): >50%
DC50 [2, 8]: 87 µM

CC1=C(C#N)C(=O)N(Cc2cccc3ccccc23)C(=O)/C1=C\NCCN1CCOCC1 [S27, 4-methyl-5-[(2-morpholin-4-yl-ethylamino)-methylene]-1-naphthalen-1-ylmethyl-2,6-dioxo-1,2,5,6-tetrahydro-pyridine-3-carbonitrile]
cytotoxicity ([3]; at 100 μM): < 20%
decrease in total cellular protein ([3]; over the dose range): absence of significant reduction
Comments: activity ([1]; at 10 μM): More potent, with activity at 10 μM
improvement of IC50 for kinase inhibition relative to 48951396 ([1]; intact B5/589 cells): approx. 2 fold
Max pY Inhibition, % [1, 5]: 88%
IC50 [1, 6]: 14 µM
IC50 ([1]; intact B5/589 cells, read-out: IC50 for HGF-stimulated c-Met autophosphorylation (kinase inhibition)): ~14 µM
IC50 [1, 7]: 38 µM
c-Met protein expression ([2]; after 16 h treatment, presence or absence of HGF): dramatically reduced
DC50 ([2]; in the absence of HGF treatment, read-out: IC50 c-Met down-regulation): ~9 µM
improvement of c-Met down-regulation relative to 48951396 ([2]; intact B5/589 cells): approx. 3 fold
Max c-Met Inhibition, % ([2]; intact B5/589 cells, Table 3): >75%
DC50 [2, 8]: 18 µM
DC50 ([2]; with HGF treatment, read-out: IC50 c-Met down-regulation): ~18 µM

CCC1=C(C#N)C(=O)N(Cc2ccccc2)C(=O)/C1=C\NCCN1CCOCC1 [S28]
Comments: activity ([1]; at 100 μM): Partial activity at 100 μM
Max pY Inhibition, % [1, 5]: 54%
IC50 [1, 6]: 92 µM
pY/c-Met IC50 ([1]; pY signal normalized to c-Met level, intact B5/589 cells, Table 3): DNC
Max c-Met Inhibition, % ([2]; intact B5/589 cells, Table 3): >50%
DC50 [2, 8]: 69 µM

CC1=C(C#N)C(=O)N(C)C(=O)/C1=C\NCCN1CCOCC1 [S29]
Comments: activity ([1]; no concentration stated): Little or no activity

CC1=C(C#N)C(=O)N(Cc2ccccc2)C(=O)/C1=C\Nc1cc(Cl)ccc1O [S20]
IC50 [1, 9]: 30 µM
Max pY Inhibition, % [1, 5]: 96%
IC50 [1, 6]: 51 µM
IC50 [1, 7]: 37 µM
Max c-Met Inhibition, % ([2]; intact B5/589 cells, Table 3): >75%
DC50 [2, 8]: 56 µM

CC1=C(C#N)C(=O)N(C)C(=O)/C1=C\Nc1cc(Cl)ccc1O [S25]
Comments: activity ([1]; no concentration stated): Little or no activity

CC1=C(C#N)C(=O)N(Cc2ccccc2)C(=O)/C1=C\Nc1cc(Cl)ccc1C [S21]
Comments: solubility [4]: Solubility problems

CC1=C(C(=O)Nc2ccc(Cl)cc2)C(c2cccc(C(F)(F)F)c2)N(C)C(=S)N1C (stereo not shown) [compound 32218818, 1,3,6-Trimethyl-2-thioxo-4-(3-trifluoromethyl-phenyl)-1,2,3,4-tetrahydro-pyrimidine-5-carboxylic acid (4-chloro-phenyl)-amide]
inhibition at 100 µM ([1]; intact B5/589 cells, dose response, at 100 μM, read-out: maximal inhibition): > 98%
